Test system: SMMC-7721 cells
Assay: MTT colorimetry, inhibition of hepatocellular carcinoma SMMC-7721 cell activity
Type: cell-based
Conditions: 48 hours
Experimental: Test for Inhibition of Cancer Cell Activity by Compound of Embodiment 19 (Taking Hepatocellular Carcinoma SMMC-7721 Cells as an embodiment):
SMMC-7721 cells are cultured in DMEM high sugar medium containing 10% fetal bovine serum in a saturated humidity incubator at 37° C. and 5% CO2. The culture medium is changed every two days and passaged every 3-4 days. The drug is prepared as 1 mmol/L and 10 mmol/L storage solution using DMSO as solvent, when used, the concentration is diluted into 1 μmol/L and 10 μmol/L with culture medium, using DMSO as negative control group and gemcitabine as positive control group to act on cells in logarithmic growth phase.
Cells in logarithmic growth phase are digested with 0.025% pancreatin, and then digested with DMEM high sugar medium containing 10% fetal bovine serum. After centrifugation, the cells are suspended in DMEM high sugar medium containing 10% fetal bovine serum. Take a 96-well plate and add 200 μL of sterile water seal to each hole around the plate to ensure saturated humidity in the experiment. In the middle six rows, 100 μL of cell suspension are added respectively, and the cell concentration is about 3.5×10^4 cells/mL. The last row is blank control group, and the same volume of complete culture medium is added. In 37° C., 5% CO2 saturated humidity incubator culture for 24 hours, cells completely adhere to the wall, remove the culture medium, add complete culture medium containing different drugs, 200 μL per hole. The blank control group is added with 200 μL of complete culture medium, and the culture is continued. After 24 hours, the drug effect is observed and photographed under an inverted microscope. After 48 hours, the drug effect is also observed and photographed under an inverted microscope. Then the supernatant is removed. 100 μL of 0.5 mg/mL MTT solution is added to each well. After 4 hours of continuous culture, purple crystal formazan is generated. 100 μL of 10% SDS is added to each well. After 12 hours of culture in an incubator at 37° C., the OD value is measured with an enzyme reader at A571 wavelength. Repeat 6 wells for each sample concentration, and calculate the inhibition rate by taking the average value.

Structure (SMILES) | Inhibition Rate (%) (1 μmol/L) | Inhibition Rate (%) (10 μmol/L) | inhibition at 1 µM (Homo sapiens, 1 μmol/L, read-out: Inhibition Rate (%)) | inhibition at 10 µM (Homo sapiens, 10 μmol/L, read-out: Inhibition Rate (%))
COc1cc(OC)c2c(=O)c(OCCCN(C)C3CCN(C(=S)SCc4ccc(Cl)cc4Cl)CC3)c(-c3cc(OC)c(OC)c(OC)c3)oc2c1 [Compound A3, 2,4-dichlorobenzyl 4-((3-((5,7-dimethoxy-4-oxo-2-(3,4,5-trimethoxyphenyl)-4H-chromene-3-yl)oxy)propyl) (methyl)amino) piperidine-1-dithiocarboxylic acid] | 18.16 ± 2.14 % | 97.35 ± 1.78 % |  | 
COc1cc(OC)c2c(=O)c(OCCCCN(C)C3CCN(C(=S)SCc4ccc(Cl)nc4)CC3)c(-c3cc(OC)c(OC)c(OC)c3)oc2c1 [Compound A18, (6-chloropyridine-3-yl) methyl-4-((4-((5,7-dimethoxy-4-oxo-2-(3,4,5-trimethoxyphenyl)-4H-benzopyran-3-yl)oxy)butyl) (methyl)amino) piperidine-1-dithiocarboxylic acid] | 33.58 ± 1.67 % | 100 ± 0.42 % |  | 
COc1cc(OC)c2c(=O)c(OCCCN(C)C3CCN(C(=S)SCc4ccccc4Cl)CC3)c(-c3cc(OC)c(OC)c(OC)c3)oc2c1 [Compound A2, 2-chlorobenzyl-4-((3-((5,7-dimethoxy-4-oxo-2-(3,4,5-trimethoxyphenyl)-4H-chromene-3-yl)oxy)propyl)(methyl)amino)piperidine-1-dithiocarboxylic acid] | 25.44 ± 3.25 % | 96.13 ± 3.42 % |  | 
COc1cc(OC)c2c(=O)c(OCCCN(C)C3CCN(C(=S)SCc4cccc(C)c4)CC3)c(-c3cc(OC)c(OC)c(OC)c3)oc2c1 [Compound A5, 3-methylbenzyl 4-((3-((5,7-dimethoxy-4-oxo-2-(3,4,5-trimethoxyphenyl)-4H-chromene-3-yl)oxy)propyl) (methyl)amino) piperidine-1-dithiocarboxylic acid] | 12.32 ± 2.39 % | 97.52 ± 1.12 % |  | 
COc1cc(OC)c2c(=O)c(OCCCN(C)C3CCN(C(=S)SCc4ccc([N+](=O)[O-])cc4)CC3)c(-c3cc(OC)c(OC)c(OC)c3)oc2c1 [Compound A7, 4-nitrobenzyl 4-((3-((5,7-dimethoxy-4-oxo-2-(3,4,5-trimethoxyphenyl)-4H-chromene-3-yl)oxy)propyl) (methyl)amino) piperidine-1-dithiocarboxylic acid] | 27.70 ± 1.09 % | 99.35 ± 3.48 % |  | 
COc1cc(OC)c2c(=O)c(OCCCN(C)C3CCN(C(=S)SCc4ccc(Cl)cc4)CC3)c(-c3cc(OC)c(OC)c(OC)c3)oc2c1 [Compound A1, 4-chlorobenzyl 4-((3-((5,7-dimethoxy-4-oxo-2-(3,4,5-trimethoxyphenyl)-4H-chromene-3-yl)oxy)propyl)(methyl)amino)piperidine-1-dithiocarboxylic acid] | 21.82 ± 2.34 % | 95.51 ± 4.16 % |  | 
COc1cc(OC)c2c(=O)c(OCCCCN(C)C3CCN(C(=S)SCc4ccc(Cl)cc4Cl)CC3)c(-c3cc(OC)c(OC)c(OC)c3)oc2c1 [Compound A12, 2,4-dichlorobenzyl-4-((4-((5,7-dimethoxy-4-oxo-2-(3,4,5-trimethoxyphenyl)-4H-benzopyran-3-yl)oxy)butyl) (methyl)amino) piperidine-1-dithiocarboxylic acid] | 98.09 ± 2.68 % | 99.28 ± 1.04 % |  | 
COc1cc(OC)c2c(=O)c(OCCCCN(C)C3CCN(C(=S)SCc4cccc(C)c4)CC3)c(-c3cc(OC)c(OC)c(OC)c3)oc2c1 [Compound A14, 3-methylbenzyl-4-((4-((5,7-dimethoxy-4-oxo-2-(3,4,5-trimethoxyphenyl)-4H-benzopyran-3-yl)oxy)butyl) (methyl)amino) piperidine-1-dithiocarboxylic acid] | 96.65 ± 2.61 % | 100 ± 0.42 % |  | 
COc1cc(OC)c2c(=O)c(OCCCCN(C)C3CCN(C(=S)SCc4ccc([N+](=O)[O-])cc4)CC3)c(-c3cc(OC)c(OC)c(OC)c3)oc2c1 [Compound A16, 4-nitrobenzyl-4-((4-((5,7-dimethoxy-4-oxo-2-(3,4,5-trimethoxyphenyl)-4H-benzopyran-3-yl)oxy)butyl) (methyl)amino) piperidine-1-dithiocarboxylic acid] | 26.84 ± 4.36 % | 99.85 ± 0.71 % |  | 
COc1cc(OC)c2c(=O)c(OCCCN(C)C3CCN(C(=S)SCc4ccc(Cl)nc4)CC3)c(-c3cc(OC)c(OC)c(OC)c3)oc2c1 [Compound A9, (6-chloropyridine-3-yl) methyl 4-((3-((5,7-dimethoxy-4-oxo-2-(3,4,5-trimethoxyphenyl)-4H-benzopyran-3-yl)oxygen)propyl) (methyl)amino) piperidine-1-dithiocarboxylic acid] | 18.83 ± 3.15 % | 99.76 ± 1.06 % |  | 
COc1cc(OC)c2c(=O)c(OCCCN(C)C3CCN(C(=S)SCc4ccccc4C)CC3)c(-c3cc(OC)c(OC)c(OC)c3)oc2c1 [Compound A6, 2-methylbenzyl 4-((3-((5,7-dimethoxy-4-oxo-2-(3,4,5-trimethoxyphenyl)-4H-chromene-3-yl)oxy)propyl) (methyl)amino) piperidine-1-dithiocarboxylic acid] | 34.32 ± 2.69 % | 98.12 ± 2.76 % |  | 
COc1cc(OC)c2c(=O)c(OCCCCN(C)C3CCN(C(=S)SCc4ccccc4Cl)CC3)c(-c3cc(OC)c(OC)c(OC)c3)oc2c1 [Compound A11, 2-chlorobenzyl-4-((4-((5,7-dimethoxy-4-oxo-2-(3,4,5-trimethoxyphenyl)-4H-benzopyran-3-yl)oxy)butyl) (methyl)amino) piperidine-1-dithiocarboxylic acid] | 91.00 ± 2.86 % | 99.85 ± 1.64 % |  | 
COc1cc(OC)c2c(=O)c(OCCCN(C)C3CCN(C(=S)SCc4cccnc4)CC3)c(-c3cc(OC)c(OC)c(OC)c3)oc2c1 [Compound A8, pyridine-3-ylmethyl 4-((3-((5,7-dimethoxy-4-oxo-2-(3,4,5-trimethoxyphenyl)-4H-chromene-3-yl)oxy)propyl) (methyl)amino) piperidine-1-dithiocarboxylic acid] | 15.48 ± 2.74 % | 99.85 ± 1.64 % |  | 
COc1cc(OC)c2c(=O)c(OCCCCN(C)C3CCN(C(=S)SCc4ccccc4F)CC3)c(-c3cc(OC)c(OC)c(OC)c3)oc2c1 [Compound A13, 2-fluorobenzyl-4-((4-((5,7-dimethoxy-4-oxo-2-(3,4,5-trimethoxyphenyl)-4H-benzopyran-3-yl)oxy)butyl) (methyl)amino) piperidine-1-dithiocarboxylic acid] | 46.96 ± 4.65 % | 99.76 ± 1.06 % |  | 
COc1cc(OC)c2c(=O)c(OCCCN(C)C3CCN(C(=S)SCc4ccccc4F)CC3)c(-c3cc(OC)c(OC)c(OC)c3)oc2c1 [Compound A4, 2-fluorobenzyl 4-((3-((5,7-dimethoxy-4-oxo-2-(3,4,5-trimethoxyphenyl)-4H-chromene-3-yl)oxy)propyl)(methyl)amino) piperidine-1-dithiocarboxylic acid] | 20.66 ± 1.21 % | 99.85 ± 1.64 % |  | 
COc1cc(OC)c2c(=O)c(OCCCCN(C)C3CCN(C(=S)SCc4ccccc4C)CC3)c(-c3cc(OC)c(OC)c(OC)c3)oc2c1 [Compound A15, 2-methylbenzyl-4-((4-((5,7-dimethoxy-4-oxo-2-(3,4,5-trimethoxyphenyl)-4H-benzopyran-3-yl)oxy)butyl) (methyl)amino) piperidine-1-dithiocarboxylic acid] | 16.38 ± 3.82 % | 99.52 ± 1.12 % |  | 
COc1cc(OC)c2c(=O)c(OCCCCN(C)C3CCN(C(=S)SCc4ccc(Cl)cc4)CC3)c(-c3cc(OC)c(OC)c(OC)c3)oc2c1 [Compound A10, 4-chlorobenzyl-4-((4-((5,7-dimethoxy-4-oxo-2-(3,4,5-trimethoxyphenyl)-4H-benzopyran-3-yl)oxy)butyl) (methyl)amino) piperidine-1-dithiocarboxylic acid] | 92.83 ± 3.84 % | 97.85 ± 3.35 % |  | 
Nc1ccn([C@@H]2O[C@H](CO)[C@@H](O)C2(F)F)c(=O)n1 [Gencitabine, gemcitabine, reference compound] |  |  | 55.7 ± 2.26% | 63.5 ± 2.18%
COc1cc(OC)c2c(=O)c(OCCCCN(C)C3CCN(C(=S)SCc4cccnc4)CC3)c(-c3cc(OC)c(OC)c(OC)c3)oc2c1 [Compound A17, pyridine-3-ylmethyl-4-((4-((5,7-dimethoxy-4-oxo-2-(3,4,5-trimethoxyphenyl)-4H-benzopyran-3-yl)oxy)butyl) (methyl)amino) piperidine-1-dithiocarboxylic acid] | 68.42 ± 2.35 % | 100 ± 1.31 % |  | 

Reference: patent publication US12043617B2, “4-(N-methyl) aminopiperidine myricetin derivative containing dithiocarbamate, preparation method and application” (Guizhou University, priority 2019, dated 2024)
